Reference: US20110135671A1, “PURINE DERIVATIVES FOR USE IN THE TREATMENT OF ALLERGIC, INFLAMMATORY AND INFECTIOUS DISEASES” (GLAXOSMITHKLINE LLC, priority 2008, published 2011)
Structures can show the parent of a compound that is named as a salt.

Columns and labels:
Interferon-α [1] = assay: Induction of Interferon-α using fresh human PBMCs; type: cell-based; conditions: PBMC, 24 hr, relative to 2 μM resiquimod control, read-out: mean pEC50 for induction of IFN-α (converted)
Experimental: (§1) Assay for the Induction of Interferon-α and TNF-α Using Fresh Human Peripheral Blood Mononuclear Cells (PBMCs)
(§2) Compounds were dissolved and serially diluted in DMSO to give 100× the required concentration range using a Biomek 2000. 1 ul of test compound was transferred into 96-well tissue culture plates using a Biomek FX. Each compound was assayed in duplicate for each donor. Each plate contained a dilution series of the TLR7/8 agonist resiquimod as standard and Column 11 contained 1 μl of 200 μM resiquimod (giving a 2 μM final concentration, used to define the approximate maximal response to resiquimod).
(§3) Blood samples from two human donors were collected into sodium heparin (10 U/ml). 25 ml volumes of whole blood were overlaid onto 15 mls Histopaque in Leucosep tubes which were centrifuged at 800 g for 20 min and the band at the plasma/histopaque interface carefully removed. The collected cells were centrifuged at 2500 rpm for 10 min and the pellet resuspended in 10 ml of media (RPMI 1640 (Low endotoxin) supplemented with 10% v/v foetal calf serum (FCS, low endotoxin) 100 U/ml penicillin G, 100 μg/ml streptomycin, 10 mM L-glutamine and 1× non-essential amino acids). A 1:20 dilution of the cells was prepared using trypan blue & the cells counted using a haemocytometer. The PBMCs were diluted to give a final concentration of 2×10^6/ml and 100 ul of this cells suspension was added to wells containing 1 μl of diluted test compound.
(§4) The cell preparations were incubated for 24 hr (37° C., 95% air, 5% CO2) after which a sample of the supernatant was removed using the Biomek FX and assayed for both IFN-α and TNF-α using the MSD (Mesoscale Discovery) electrochemiluminescence assay platform. The IFN-α assay was carried out similarly to that described above. The TNF-α assay was carried out as per kit instructions (Cat No K111 BHB).
(§5) Cytokine released was expressed as a percentage of the 2 μM resiquimod control (column 11). This percentage was plotted against compound concentration and the pEC50 for the response determined by non-linear least squares curve fitting. For the IFN-α responses generally a 4 parameter logistic model was selected. For the TNF responses where a clear maximum response was obtained (i.e. a well defined plateau in the response was observed) then a 4 parameter model was generally used. If the upper asymptote of the curve wasn't well defined then the curve fitting was generally constrained to a maximal response of 100% (i.e., to the response to 2 μM resiquimod) or to the response of the highest concentration tested if this was greater than the resiquimod response. Some curves were bell shaped for one or both cytokines and the cytokine data on the down slope of the bell shaped response (i.e. concentrations above those giving the maximal response) were generally excluded from the fit, usually with the exception of the concentration immediately above the peak response. Curve fitting thus concentrated on the up slope of the dose response curve.

TNF-α = assay: Induction of TNF-α using fresh human PBMCs; type: cell-based; conditions: PBMC, 24 hr, relative to 2 μM resiquimod control, read-out: mean pEC50 for induction of TNF-α (converted)
Experimental: as §1, §2, §3, §4, §5

Interferon-α [2] = assay: Induction of Interferon-α using cryopreserved human PBMCs; type: cell-based; conditions: PBMC, 24 h, normalised to 1 uM resiquimod, read-out: mean pEC50 for induction of Interferon-α (converted)
Experimental: Assay for the Induction of Interferon-α using Cryopreserved Human Peripheral Blood Mononuclear Cells (PBMCs)
Compounds were dissolved in DMSO. Serial 2-fold dilutions with DMSO were prepared and 0.25 μl dispensed into 384-well clear Greiner polypropylene plates.
Blood samples of up to 200 ml were obtained from healthy human donors. Whole blood in 25 ml volumes was overlaid onto 15 ml Ficoll gradients in Leucosep tubes, and centrifuged at 1000 g for 20 min. Cells in the band at the plasma/histopaque interface were carefully removed and washed twice with PBS (centrifuged at 400 g for 5 min to harvest). The final pellet was resuspended in freezing medium (90% Heat-inactivated serum, 10% DMSO) to a cell concentration of 4×10^7 cells/ml. The resuspended cells were then cryopreserved (frozen) using a rate controlled freezer, and stored at −140° C. for up to 4 months.
Incubation and Assay for Interferon-α
Immediately prior to assay, vials of cryopreserved (frozen) PBMCs were thawed rapidly in a water bath at 37° C. A 1:10 dilution of the cells in trypan blue was prepared and counted. The PBMCs were then diluted in growth media [RPMI 1640 containing 10% fetal calf serum (invitrogen), Penicillin+Streptavidin (Gibco cat. # 25030-024, 1:50), L-Glutamine 2 mM, and 1000 units/ml recombinant human IFN-gamma (Preprotech catalogue #300-02)] to a density of 1×10^6 cells/ml, and 50 ul/well dispensed to 384-well clear Greiner polypropylene plates containing 0.25 μl DMSO or test compound in 0.25 μl DMSO. […] Plates were incubated for 24 h at 37° C. in 5% CO2.
A multi-isoform immunoassay was used to quantify IFN-α in PBMC supernatants. Rabbit polyclonal antibody against human IFN-α (catalogue number 31101, Stratech Scientific) was diluted 1:10000 in assay buffer (RPMI 1640 containing 10% fetal calf serum, Invitrogen) and 20 μl was added to each well of an MSD (Meso-Scale Discovery) single small-spot 384-well GAR (goat anti-rabbit antibody coated) plate. The plate was incubated for 1 h at room temperature with vigorous shaking. Following three washes with PBS, 20 μl of cell supernatant were added to each well of the plate. The plate was then incubated for 1 h at room temperature with vigorous shaking. A pair of monoclonal antibodies to IFN-α (catalogue numbers 21100 and 21112, Stratech Scientific) were labelled with sulfo-TAG (MSD), diluted 1:1000 in assay buffer and 20 μl added to each well of the plate. The plate was further incubated for 1 h at room temperature with vigorous shaking. Following three washes with PBS, 30 μl of ×2 T buffer (MSD) was added to each well and the plate was read on an MSD Sector 6000 plate reader.
Data were normalised to internal plate controls of 1 uM resiquimod (n=16) and DMSO (n=16). pEC50 values were derived by 4-parameter curve fit with IRLS in ActivityBase, from 11-point, two-fold serial dilution of test compounds.

Interferon-α [3] = assay: Induction of Interferon-α following intranasal dosing in the mouse; type: in vivo; conditions: female BALB/c mice, 2 hours after dosing, ELISA
Experimental: Assay for the Induction of Interferon-α Following Intranasal Dosing in the Mouse.
Example 46 was dissolved in 0.2% Tween 80 in saline and administered intranasally (5 μl in total between the nostrils) to female BALB/c mice (n=6) under general anaesthesia. Animals were euthanased 2 hours after dosing and a terminal blood sample was taken and serum levels of Interferon-α was measured using an ELISA assay. Mean serum levels of Interferon-α of 1253 pg/ml were measured. No Interferon-α was detected in vehicle treated controls.

IL-5 = assay: Allergen-driven cytokine assay using fresh human PBMCs from atopic volunteers (IL-5); type: cell-based; conditions: at 0.04 μM; atopic donor PBMCs with Timothy grass antigen, up to 6 days
Experimental: (§6) Allergen-Driven Cytokine Assay Using Fresh Human Peripheral Blood Mononuclear Cells (PBMCs) from Atopic Volunteers
(§7) An assay based on co-culture of atopic human donor derived peripheral blood mononuclear cells (PBMCs) with allergen and test compounds was developed. After 5-6 days culture, cell supernatants were assayed for a range of cytokines.
(§8) Compounds were dissolved in DMSO, then serially diluted in growth medium (RPMI 1640 medium supplemented with 100 U/ml penicillin G, 100 μg/ml streptomycin, 10 mM L-glutamine) to give 4× the required concentration range in the presence of 0.04% DMSO. Each compound was assayed in triplicate at all concentrations.
(§9) Defibrinated human blood from volunteers known to be allergic to Timothy grass was centrifuged at 2500 rpm for 15 minutes. The upper layer of serum was collected and heat-inactivated at 56° C. for 30 minutes (HI-autologous serum). The lower layer of cells was resuspended in 50 ml PBS (+Ca +Mg), 25 ml diluted blood were overlaid onto 20 ml Lymphoprep in 50 ml tubes then centrifuged at 2500 rpm for 20 minutes at RT. The band at the serum/Lymphoprep interface was carefully removed. […]
(§10) Plates were incubated at 37° C. in 5% CO2 for up to 6 days. […] Cytokines and chemokines in supernatants were detected using Meso Scale Discovery 10 spot plates for Human TH1/Th2 cytokines.

IL-13 = assay: Allergen-driven cytokine assay using fresh human PBMCs from atopic volunteers (IL-13); type: cell-based; conditions: at 0.2 μM; atopic donor PBMCs with Timothy grass antigen, up to 6 days
Experimental: as §6, §7, §8, §9, §10

## CCCCOc1nc(N)c2[nH]c(=O)n(CCCCN3CCN(C(C)(C)C)CC3)c2n1 [Example 32, 6-Amino-2-(butyloxy)-9-{4-[4-(1,1-dimethylethyl)-1-piperazinyl]butyl}-7,9-dihydro-8H-purin-8-one]
Interferon-α [1]
  EC50: < 0.01 µM
TNF-α
  EC50: > 1 µM
Interferon-α [2]
  EC50: < 3.16 µM

## CCCCOc1nc(N)c2[nH]c(=O)n(CCN3CCNCC3)c2n1 [Example 1, 6-Amino-2-(butyloxy)-9-[2-(1-piperazinyl)ethyl]-7,9-dihydro-8H-purin-8-one dihydrochloride salt]
Interferon-α [1]
  EC50: < 0.1 µM
TNF-α
  EC50: > 3.16 µM
Interferon-α [2]
  EC50: < 3.16 µM

## CCCCOc1nc(N)c2[nH]c(=O)n(CCCCCN3CCN(C)CC3)c2n1 [Example 46, 6-Amino-2-(butyloxy)-9-[5-(4-methyl-1-piperazinyl)pentyl]-7,9-dihydro-8H-purin-8-one]
Interferon-α [1]
  EC50: < 0.001 µM
Interferon-α [3]
  mean serum levels of Interferon-α: 1253 pg/mL
TNF-α
  EC50: > 1 µM
Interferon-α [2]
  EC50: < 3.16 µM

## CCC[C@H](C)Oc1nc(N)c2[nH]c(=O)n(CCCCCN3CCN(C(C)C)CC3)c2n1 [Example 52, 6-Amino-2-{[(1S)-1-methylbutyl]oxy}-9-{5-[4-(1-methylethyl)-1-piperazinyl]pentyl}-7,9-dihydro-8H-purin-8-one]
IL-5
  reduction of IL-5 production compared to the allergen control: > 50%
IL-13
  reduction of IL-13 production compared to the allergen control: > 50%
Interferon-α [2]
  EC50: < 3.16 µM

## CCCCOc1nc(N)c2[nH]c(=O)n(CCCCN3CCN(C(C)C)CC3)c2n1 [Example 29, 6-Amino-2-(butyloxy)-9-{4-[4-(1-methylethyl)-1-piperazinyl]butyl}-7,9-dihydro-8H-purin-8-one]
Interferon-α [1]
  EC50: < 0.01 µM
TNF-α
  EC50: > 1 µM
Interferon-α [2]
  EC50: < 3.16 µM

## CCCCOc1nc(N)c2[nH]c(=O)n(CCCCCN3CCN(C(C)C)CC3)c2n1 [Example 48, 6-Amino-2-(butyloxy)-9-{5-[4-(1-methylethyl)-1-piperazinyl]pentyl}-7,9-dihydro-8H-purin-8-one]
Interferon-α [1]
  EC50: < 0.01 µM
TNF-α
  EC50: > 1 µM
Interferon-α [2]
  EC50: < 3.16 µM

## CCCCOc1nc(N)c2[nH]c(=O)n(CCCCCCN3CCN(C(C)(C)C)CC3)c2n1 [Example 57, 6-Amino-2-(butyloxy)-9-{6-[4-(1,1-dimethylethyl)-1-piperazinyl]hexyl}-7,9-dihydro-8H-purin-8-one]
Interferon-α [1]
  EC50: < 0.001 µM
TNF-α
  EC50: > 1 µM
Interferon-α [2]
  EC50: < 3.16 µM

## CCCCNc1nc(N)c2[nH]c(=O)n(CCCCN3CCN(C(C)(C)C)CC3)c2n1 [Example 41, 6-Amino-2-(butylamino)-9-{4-[4-(1,1-dimethylethyl)-1-piperazinyl]butyl}-7,9-dihydro-8H-purin-8-one]
Interferon-α [1]
  EC50: < 0.1 µM
TNF-α
  EC50: > 3.16 µM
Interferon-α [2]
  EC50: < 3.16 µM

## CCCCOc1nc(N)c2[nH]c(=O)n(CCCCN3CCN(C)CC3)c2n1 [Example 26, 6-Amino-2-(butyloxy)-9-[4-(4-methyl-1-piperazinyl)butyl]-7,9-dihydro-8H-burin-8-one]
Interferon-α [1]
  EC50: < 0.1 µM
TNF-α
  EC50: > 3.16 µM
Interferon-α [2]
  EC50: < 3.16 µM

## CCCCOc1nc(N)c2[nH]c(=O)n(CCCN3CCN(C)CC3)c2n1 [Example 6, 6-Amino-2-(butyloxy)-9-[3-(4-methyl-1-piperazinyl)propyl]-7,9-dihydro-8H-purin-8-one]
Interferon-α [1]
  EC50: < 0.1 µM
TNF-α
  EC50: > 3.16 µM
Interferon-α [2]
  EC50: < 3.16 µM

## CCCCOc1nc(N)c2[nH]c(=O)n(CCCCN3CCN(CC)CC3)c2n1 [Example 27, 6-Amino-2-(butyloxy)-9-[4-(4-ethyl-1-piperazinyl)butyl]-7,9-dihydro-8H-burin-8-one]
Interferon-α [1]
  EC50: < 0.01 µM
TNF-α
  EC50: > 1 µM
Interferon-α [2]
  EC50: < 3.16 µM

## CCCCOc1nc(N)c2[nH]c(=O)n(CCCCCCN3CCNCC3)c2n1 [Example 54, 6-Amino-2-(butyloxy)-9-[6-(1-piperazinyl)hexyl]-7,9-dihydro-8H-purin-8-one]
Interferon-α [1]
  EC50: < 0.01 µM
TNF-α
  EC50: > 1 µM
Interferon-α [2]
  EC50: < 3.16 µM

## CCCCCN1CCN(CCCCCn2c(=O)[nH]c3c(N)nc(OCCCC)nc32)CC1 [Example 60, 6-Amino-2-(butyloxy)-9-[5-(4-pentyl-1-piperazinyl)pentyl]-7,9-dihydro-8H-purin-8-one]
Interferon-α [2]
  EC50: < 3.16 µM

## CCCCNc1nc(N)c2[nH]c(=O)n(CCN3CCN(C)CC3)c2n1 [Example 3, 6-Amino-2-(butylamino)-9-[2-(4-methyl-1-piperazinyl)ethyl]-7,9-dihydro-8H-purin-8-one]
Interferon-α [2]
  EC50: < 3.16 µM
